Reference: PubChem BioAssay (NCI)
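Cells were grown in 96-well plates and exposed to each compound for 48 hours at five concentrations; endpoints were interpolated linearly between bracketing concentrations, or set to the highest concentration if not reached. At the GI50, growth is halved. TGI marks complete inhibition of growth.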

Key:
Assay in all cases: NCI-60 cell line screen, 48 h; in the data active means GI50 below about 0.43 µM; inactive means the rest
786-0 renal = tested on: 786-0 renal
A498 renal = tested on: A498 renal
A549 NSCLC = tested on: A549 NSCLC
ACHN renal = tested on: ACHN renal
DU-145 prostate = tested on: DU-145 prostate
EKVX NSCLC = tested on: EKVX NSCLC
HCT-116 colon = tested on: HCT-116 colon
HCT-15 colon = tested on: HCT-15 colon
HL-60(TB) leukemia = tested on: HL-60(TB) leukemia
HOP-62 NSCLC = tested on: HOP-62 NSCLC
HOP-92 NSCLC = tested on: HOP-92 NSCLC
HT29 colon = tested on: HT29 colon
IGROV1 ovarian = tested on: IGROV1 ovarian
K-562 leukemia = tested on: K-562 leukemia
KM12 colon = tested on: KM12 colon
LOX IMVI melanoma = tested on: LOX IMVI melanoma
M14 melanoma = tested on: M14 melanoma
MCF7 breast = tested on: MCF7 breast
MDA-MB-231 breast = tested on: MDA-MB-231 breast
MDA-MB-435 = tested on: MDA-MB-435
MOLT-4 leukemia = tested on: MOLT-4 leukemia
NCI-H226 lung = tested on: NCI-H226 lung
NCI-H460 lung = tested on: NCI-H460 lung
NCI-H522 lung = tested on: NCI-H522 lung
NCI/ADR-RES ovarian = tested on: NCI/ADR-RES ovarian
OVCAR-3 ovarian = tested on: OVCAR-3 ovarian
OVCAR-5 ovarian = tested on: OVCAR-5 ovarian
OVCAR-8 ovarian = tested on: OVCAR-8 ovarian
PC-3 prostate = tested on: PC-3 prostate
RPMI-8226 leukemia = tested on: RPMI-8226 leukemia
SF-268 CNS = tested on: SF-268 CNS
SF-295 CNS = tested on: SF-295 CNS
SF-539 CNS = tested on: SF-539 CNS
SK-MEL-2 melanoma = tested on: SK-MEL-2 melanoma
SK-MEL-28 melanoma = tested on: SK-MEL-28 melanoma
SK-OV-3 ovarian = tested on: SK-OV-3 ovarian
SN12C renal = tested on: SN12C renal
SNB-19 CNS = tested on: SNB-19 CNS
SNB-75 CNS = tested on: SNB-75 CNS
SR leukemia = tested on: SR leukemia
SW-620 colon = tested on: SW-620 colon
T-47D breast = tested on: T-47D breast
TK-10 renal = tested on: TK-10 renal
U251 CNS = tested on: U251 CNS
UACC-257 melanoma = tested on: UACC-257 melanoma
UACC-62 melanoma = tested on: UACC-62 melanoma
UO-31 renal = tested on: UO-31 renal
BT-549 breast = tested on: BT-549 breast
CAKI-1 renal = tested on: CAKI-1 renal
CCRF-CEM leukemia = tested on: CCRF-CEM leukemia
COLO 205 colon = tested on: COLO 205 colon
HCC-2998 colon = tested on: HCC-2998 colon
HS 578T breast = tested on: HS 578T breast
MALME-3M melanoma = tested on: MALME-3M melanoma
NCI-H23 lung = tested on: NCI-H23 lung
OVCAR-4 ovarian = tested on: OVCAR-4 ovarian
RXF 393 renal = tested on: RXF 393 renal
SK-MEL-5 melanoma = tested on: SK-MEL-5 melanoma

COc1cc(C2C3C=CC=C4CC=CC(=C43)C3CCC(=O)N32)cc(OC)c1OC (stereo unspecified)
69.8 µM: TGI (NCI/ADR-RES ovarian)
36.3 µM: TGI (NCI-H226 lung)
> 100 µM: TGI (786-0 renal) | TGI (A498 renal) | TGI (A549 NSCLC) | TGI (ACHN renal) | TGI (DU-145 prostate) | TGI (EKVX NSCLC) | TGI (HCT-116 colon) | TGI (HCT-15 colon) | TGI (HL-60(TB) leukemia) | TGI (HOP-62 NSCLC) | TGI (HOP-92 NSCLC) | TGI (HT29 colon) | TGI (IGROV1 ovarian) | TGI (K-562 leukemia) | TGI (KM12 colon) | TGI (LOX IMVI melanoma) | TGI (M14 melanoma) | TGI (MCF7 breast) | TGI (MDA-MB-231 breast) | TGI (MDA-MB-435) | TGI (MOLT-4 leukemia) | TGI (NCI-H460 lung) | TGI (NCI-H522 lung) | TGI (OVCAR-3 ovarian) | TGI (OVCAR-5 ovarian) | TGI (OVCAR-8 ovarian) | TGI (PC-3 prostate) | TGI (RPMI-8226 leukemia) | TGI (SF-268 CNS) | TGI (SF-295 CNS) | TGI (SF-539 CNS) | TGI (SK-MEL-2 melanoma) | TGI (SK-MEL-28 melanoma) | TGI (SK-OV-3 ovarian) | TGI (SN12C renal) | TGI (SNB-19 CNS) | TGI (SNB-75 CNS) | TGI (SR leukemia) | TGI (SW-620 colon) | TGI (T-47D breast) | TGI (TK-10 renal) | TGI (U251 CNS) | TGI (UACC-257 melanoma) | TGI (UACC-62 melanoma) | TGI (UO-31 renal)

Oc1ccc(Nc2ncnc3c2sc2ncccc23)cc1
9.21 µM: TGI (CAKI-1 renal)
> 100 µM: TGI (A549 NSCLC) | TGI (BT-549 breast) | TGI (CCRF-CEM leukemia) | TGI (DU-145 prostate) | TGI (EKVX NSCLC) | TGI (HCC-2998 colon) | TGI (HCT-116 colon) | TGI (HCT-15 colon) | TGI (HS 578T breast) | TGI (HT29 colon) | TGI (IGROV1 ovarian) | TGI (K-562 leukemia) | TGI (KM12 colon) | TGI (LOX IMVI melanoma) | TGI (MALME-3M melanoma) | TGI (MCF7 breast) | TGI (MDA-MB-231 breast) | TGI (MDA-MB-435) | TGI (NCI-H226 lung) | TGI (NCI-H460 lung) | TGI (NCI-H522 lung) | TGI (OVCAR-3 ovarian) | TGI (OVCAR-4 ovarian) | TGI (OVCAR-5 ovarian) | TGI (PC-3 prostate) | TGI (RPMI-8226 leukemia) | TGI (SF-268 CNS) | TGI (SF-295 CNS) | TGI (SK-MEL-2 melanoma) | TGI (SK-MEL-28 melanoma) | TGI (SK-MEL-5 melanoma) | TGI (SN12C renal) | TGI (SNB-19 CNS) | TGI (SW-620 colon) | TGI (TK-10 renal) | TGI (U251 CNS) | TGI (UACC-257 melanoma)
5.02 µM: TGI (UO-31 renal)
active: GI50 (786-0 renal) < 0.01 µM | GI50 (A498 renal) 0.0236 µM | GI50 (A549 NSCLC) 0.0164 µM | GI50 (ACHN renal) < 0.01 µM | GI50 (BT-549 breast) 0.0389 µM | GI50 (CAKI-1 renal) < 0.0185 µM | GI50 (CCRF-CEM leukemia) 0.0307 µM | GI50 (COLO 205 colon) 0.0726 µM | GI50 (DU-145 prostate) 0.0369 µM | GI50 (EKVX NSCLC) 0.097 µM | GI50 (HCT-116 colon) < 0.01 µM | GI50 (HCT-15 colon) 0.088 µM | GI50 (HL-60(TB) leukemia) 0.0288 µM | GI50 (HOP-62 NSCLC) 0.0175 µM | GI50 (HOP-92 NSCLC) 0.08 µM | GI50 (HT29 colon) 0.0496 µM | GI50 (K-562 leukemia) 0.36 µM | GI50 (LOX IMVI melanoma) 0.0368 µM | GI50 (M14 melanoma) 0.012 µM | GI50 (MCF7 breast) < 0.01 µM | GI50 (MDA-MB-435) 0.0403 µM | GI50 (MOLT-4 leukemia) 0.0527 µM | GI50 (NCI-H226 lung) 0.352 µM | GI50 (NCI-H23 lung) < 0.01 µM | GI50 (NCI-H460 lung) < 0.01 µM | GI50 (NCI-H522 lung) 0.0369 µM | GI50 (NCI/ADR-RES ovarian) 0.0286 µM | GI50 (OVCAR-3 ovarian) 0.397 µM | GI50 (OVCAR-5 ovarian) 0.0831 µM | GI50 (OVCAR-8 ovarian) 0.0261 µM | GI50 (RPMI-8226 leukemia) 0.0485 µM | GI50 (RXF 393 renal) 0.071 µM | GI50 (SF-268 CNS) 0.0407 µM | GI50 (SF-295 CNS) 0.0389 µM | GI50 (SF-539 CNS) 0.0266 µM | GI50 (SK-MEL-5 melanoma) 0.047 µM | GI50 (SK-OV-3 ovarian) 0.168 µM | GI50 (SN12C renal) 0.244 µM | GI50 (SNB-19 CNS) 0.0246 µM | GI50 (SNB-75 CNS) 0.0595 µM | GI50 (SW-620 colon) 0.0824 µM | GI50 (U251 CNS) 0.0262 µM | GI50 (UACC-257 melanoma) 0.0726 µM | GI50 (UACC-62 melanoma) 0.0379 µM | GI50 (UO-31 renal) 0.0241 µM
1.42 µM: TGI (ACHN renal)
46.1 µM: TGI (UACC-62 melanoma)
9.53 µM: TGI (NCI-H23 lung)
> 56.5 µM: TGI (HL-60(TB) leukemia)
97 µM: TGI (RXF 393 renal)
0.293 µM: TGI (SF-539 CNS)
1.93 µM: TGI (A498 renal)
> 35.2 µM: TGI (NCI/ADR-RES ovarian)
> 30.9 µM: TGI (OVCAR-8 ovarian)
> 40.2 µM: TGI (SK-OV-3 ovarian)
> 45.5 µM: TGI (MOLT-4 leukemia)
inactive: GI50 (HCC-2998 colon) > 33.3 µM | GI50 (HS 578T breast) > 100 µM | GI50 (IGROV1 ovarian) > 23.8 µM | GI50 (KM12 colon) 1.73 µM | GI50 (MALME-3M melanoma) 4.93 µM | GI50 (MDA-MB-231 breast) > 100 µM | GI50 (OVCAR-4 ovarian) > 88.7 µM | GI50 (PC-3 prostate) 5.15 µM | GI50 (SK-MEL-2 melanoma) 27.3 µM | GI50 (SK-MEL-28 melanoma) 3.75 µM | GI50 (TK-10 renal) > 100 µM
0.0551 µM: TGI (M14 melanoma)
11.6 µM: TGI (HOP-92 NSCLC)
7.35 µM: TGI (SNB-75 CNS)
